We go through four compounds from patent US9927423B2, “LRRC8 proteins and protein complexes and methods for identification of channel modulators” (MAX-DELBRUECK-CENTRUM FUER MOLEKULARE MEDIZIN, priority 2014, dated 2018).

Assay [1] has as its target T1, VRAC (Homo sapiens, UniProt Q8IWT6).
T1 sequence (Q8IWT6 1-810): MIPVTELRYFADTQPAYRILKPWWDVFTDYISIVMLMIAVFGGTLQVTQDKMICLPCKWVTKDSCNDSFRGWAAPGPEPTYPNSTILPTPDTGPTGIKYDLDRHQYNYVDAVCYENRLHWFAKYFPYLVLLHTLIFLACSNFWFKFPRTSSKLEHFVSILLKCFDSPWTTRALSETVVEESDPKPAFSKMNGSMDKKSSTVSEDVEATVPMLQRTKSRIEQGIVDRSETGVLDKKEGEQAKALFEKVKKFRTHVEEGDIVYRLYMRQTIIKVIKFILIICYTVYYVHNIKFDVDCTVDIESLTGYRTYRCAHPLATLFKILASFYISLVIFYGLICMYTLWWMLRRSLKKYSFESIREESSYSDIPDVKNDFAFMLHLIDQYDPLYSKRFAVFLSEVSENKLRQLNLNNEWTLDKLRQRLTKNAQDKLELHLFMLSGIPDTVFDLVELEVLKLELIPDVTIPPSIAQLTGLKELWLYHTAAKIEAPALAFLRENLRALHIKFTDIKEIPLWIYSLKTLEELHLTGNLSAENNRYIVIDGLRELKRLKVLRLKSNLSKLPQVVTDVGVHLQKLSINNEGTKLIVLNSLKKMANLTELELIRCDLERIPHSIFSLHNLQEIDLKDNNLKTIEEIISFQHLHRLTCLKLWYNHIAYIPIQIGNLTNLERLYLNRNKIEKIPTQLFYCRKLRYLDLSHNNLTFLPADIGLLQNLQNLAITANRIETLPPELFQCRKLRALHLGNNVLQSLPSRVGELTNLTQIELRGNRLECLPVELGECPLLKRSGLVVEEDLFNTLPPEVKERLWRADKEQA
In words: FLIPR YFP-quenching assay: hypotonicity-induced iodide influx into HEK cells expressing YFP(H148Q/I152L). Further details: Swelling-induced iodide influx into HEK cells, which display typical ICl(swell) currents; endogenous in cells; host or cells: HEK293: a clone inducibly expressing YFP(H148Q/I152L) in A1, and HEK cells in A2. In kind it is cell-based. The note with it: hypotonic saline with 50 mM iodide, inhibitor included in the iodide-containing solution. An excerpt:
To identify VRAC we opted for a genome-wide RNA interference screen that could identify non-redundant VRAC components even if the channel were a heteromer. Swelling-induced iodide influx into HEK cells, which display typical ICl(swell) currents (Nilius et al., 2001, Hernandez-Carballo et al.), was used as readout (FIG. 1A). We generated a clonal HEK cell line expressing a yellow fluorescent protein variant YFP(H148Q/I152L) whose fluorescence is efficiently quenched by iodide (Galietta et al.). The assay used the FLIPR™ fluorometric imaging plate reader system which allows parallel pipetting and continuous fluorescence measurements of all wells. The solution covering the cells was exchanged to a hypotonic or isotonic (control) saline containing 50 mM iodide and YFP fluorescence was followed over time (FIG. 1B). Compatible with a background permeation pathway for I^− the fluorescence decayed slowly in I^−-containing isotonic control solution. […]
The YFP-quenching assay was performed 72 h post-transfection. After having exchanged the cell culture medium in all wells of the plate with 10 μl of isotonic solution (in mM: 145 NaCl, 5 KCl, 1 MgCl2, 2 CaCl2, 10 glucose, 10 HEPES pH 7.4, 329 mOsm) in a Tecan Freedom EVO 200 workstation, the plates were transferred into the FLIPR™ (Molecular Devices) High Throughput Cellular Screening Device and fluorescence measurements were initiated. […]

Assay [2] addresses T1, VRAC. Further details: host or cells: human epidermis cancer cells. The conditions noted are these: human epidermis cancer cells; cited from earlier work.
A further assay relates to Ras-transformed cells. The conditions noted are these: Ras-transformed cells compared to WT cells; cited from earlier work.

For `CCCCC1(C2CCCC2)Cc2cc(OCCCC(=O)O)c(Cl)c(Cl)c2C1=O` (stereo not shown) [DCPIB], at VRAC [1], the “inhibition of hypotonicity-induced decrease in YFP fluorescence (quenching by iodide)” value is reported as “partially inhibited”.
Take `N.N.[Cl][Pt][Cl]` [cisplatin]: at VRAC [2], the “effect on VRAC” value is reported as “activate VRAC”.
On to `O=C(Nc1cc(C(F)(F)F)cc(C(F)(F)F)c1)Nc1ccc(Br)cc1-c1nnn[nH]1` [NS3728], for which the “inhibition of cell migration” value with Ras-transformed cells is “inhibit cell migration more strongly in Ras-transformed cells compared to WT cells”.
On to `CC1(C)[C@@H](OC(=O)CCC(=O)O)CC[C@]2(C)[C@H]3C(=O)C=C4[C@@H]5C[C@@](C)(C(=O)O)CC[C@]5(C)CC[C@@]4(C)[C@]3(C)CC[C@@H]12` [carbenoxolone], for which the “inhibition of hypotonicity-induced decrease in YFP fluorescence (quenching by iodide)” value at VRAC [1] is “partially inhibited”.
